This passage reports Ki results from BindingDB's records for doi:10.1016/s0014-2999(99)00610-x (Hungarian Academy of Sciences, 1999).

For experiment [1], the target named is Mu-type opioid receptor (Cavia porcellus, UniProt P97266).
The target in experiment [2] is Mu-type opioid receptor (Rattus norvegicus, UniProt P33535).
Experiment [3] has as its target Kappa-type opioid receptor (Rattus norvegicus, UniProt P34975).
Experiment [4] has as its target Kappa-type opioid receptor (Cavia porcellus, UniProt P41144).
The target of experiment [5] is Delta-type opioid receptor (Rattus norvegicus, UniProt P33533).
For experiment [6], the target named is Delta-type opioid receptor (Sus scrofa, UniProt P79291).

Several values for one entry are separate records, joined by “and”; a condition that tells them apart may be missing. Equal values may be shown once. Where a SMILES comes first, the peptide text is derived from it. [ ]: non-standard residue; d: D form. Tic = O=C(O)[C@@H]1Cc2ccccc2CN1

Mu-type opioid receptor (Rattus norvegicus, UniProt P33535), sequence (P33535 whole entry): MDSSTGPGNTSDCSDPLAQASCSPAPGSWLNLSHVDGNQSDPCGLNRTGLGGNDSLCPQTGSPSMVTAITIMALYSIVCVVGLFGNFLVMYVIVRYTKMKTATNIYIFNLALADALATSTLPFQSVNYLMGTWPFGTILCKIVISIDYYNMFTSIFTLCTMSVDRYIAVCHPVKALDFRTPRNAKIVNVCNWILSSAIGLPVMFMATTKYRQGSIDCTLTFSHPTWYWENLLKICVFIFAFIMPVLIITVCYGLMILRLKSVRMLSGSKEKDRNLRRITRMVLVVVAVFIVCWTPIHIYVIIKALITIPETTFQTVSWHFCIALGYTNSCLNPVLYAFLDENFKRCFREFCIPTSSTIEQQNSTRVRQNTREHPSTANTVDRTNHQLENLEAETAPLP
Delta-type opioid receptor (Rattus norvegicus, UniProt P33533), sequence (P33533 whole entry): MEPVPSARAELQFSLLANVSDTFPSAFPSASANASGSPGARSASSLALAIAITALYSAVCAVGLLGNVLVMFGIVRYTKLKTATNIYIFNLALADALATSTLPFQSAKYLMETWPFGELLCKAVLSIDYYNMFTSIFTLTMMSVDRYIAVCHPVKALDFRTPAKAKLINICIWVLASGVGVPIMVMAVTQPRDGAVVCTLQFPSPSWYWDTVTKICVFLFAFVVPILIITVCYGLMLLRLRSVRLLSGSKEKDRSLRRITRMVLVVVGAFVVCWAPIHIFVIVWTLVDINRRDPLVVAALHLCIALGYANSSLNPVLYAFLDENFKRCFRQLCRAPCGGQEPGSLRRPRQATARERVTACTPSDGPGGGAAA
Mu-type opioid receptor (Cavia porcellus, UniProt P97266), sequence (P97266 whole entry): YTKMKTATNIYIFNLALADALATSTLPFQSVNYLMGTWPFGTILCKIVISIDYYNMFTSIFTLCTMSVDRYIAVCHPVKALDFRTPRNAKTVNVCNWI
Delta-type opioid receptor (Sus scrofa, UniProt P79291), sequence (P79291 whole entry): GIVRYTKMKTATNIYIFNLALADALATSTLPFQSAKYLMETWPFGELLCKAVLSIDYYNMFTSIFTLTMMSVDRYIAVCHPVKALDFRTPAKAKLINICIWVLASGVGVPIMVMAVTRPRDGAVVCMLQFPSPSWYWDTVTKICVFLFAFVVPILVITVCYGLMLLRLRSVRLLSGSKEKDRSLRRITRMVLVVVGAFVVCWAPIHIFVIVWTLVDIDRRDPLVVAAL
Kappa-type opioid receptor (Rattus norvegicus, UniProt P34975), sequence (P34975 whole entry): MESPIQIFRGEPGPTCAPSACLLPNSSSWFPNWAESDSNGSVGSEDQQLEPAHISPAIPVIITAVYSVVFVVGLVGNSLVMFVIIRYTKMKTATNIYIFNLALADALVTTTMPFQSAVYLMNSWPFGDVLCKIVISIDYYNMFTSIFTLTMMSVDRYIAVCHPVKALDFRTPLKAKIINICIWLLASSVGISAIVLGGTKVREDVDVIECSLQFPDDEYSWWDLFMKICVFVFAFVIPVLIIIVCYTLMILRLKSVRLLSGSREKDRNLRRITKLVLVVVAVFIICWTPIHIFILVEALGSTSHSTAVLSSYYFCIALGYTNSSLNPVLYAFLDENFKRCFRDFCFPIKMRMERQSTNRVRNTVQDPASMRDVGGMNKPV
Kappa-type opioid receptor (Cavia porcellus, UniProt P41144), sequence (P41144 whole entry): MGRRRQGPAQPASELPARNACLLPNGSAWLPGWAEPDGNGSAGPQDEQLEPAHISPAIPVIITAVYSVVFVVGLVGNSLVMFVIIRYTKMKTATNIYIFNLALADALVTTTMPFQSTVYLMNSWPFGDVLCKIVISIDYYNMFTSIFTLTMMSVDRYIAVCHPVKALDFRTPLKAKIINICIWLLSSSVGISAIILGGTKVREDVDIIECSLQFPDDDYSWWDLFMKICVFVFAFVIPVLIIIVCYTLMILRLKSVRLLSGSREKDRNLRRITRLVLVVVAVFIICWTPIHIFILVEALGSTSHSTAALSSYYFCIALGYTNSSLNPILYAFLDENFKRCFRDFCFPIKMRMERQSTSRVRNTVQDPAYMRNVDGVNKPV

For `CN1CC[C@]23c4c5ccc(O)c4O[C@H]2[C@@H](O)CCC3[C@H]1C5` (stereo not given in full) [DIHYDROMORPHINE], the Ki in experiment [1] turned out to be 6 nM.

`C[C@@H](O)[C@H](NC(=O)[C@H]1NC(=O)[C@H]([C@@H](C)O)NC(=O)[C@H](CCCN=C(N)N)NC(=O)[C@@H](Cc2c[nH]c3ccccc23)NC(=O)[C@H](Cc2ccc(O)cc2)NC(=O)[C@@H](NC(=O)[C@H](N)Cc2ccccc2)CSSC1(C)C)C(N)=O`: the figures for the inhibition constant (Ki) in experiment [1] and in experiment [2] were 48.1 nM and 43.8 nM, respectively. Turning to `COc1cccc2c1[C@]13CCN(CC4CC4)C(C2)[C@]1(OC)CCC(=O)C3`, the inhibitory constant (Ki) is 26.6 nM in experiment [1]; 8.1 nM and 5.4 nM in experiment [2]; 2190 nM in experiment [3]. On to `Oc1ccc2c3c1OC1c4[nH]c5c(c4CC4(O)CN(CCC314)C(C1CC1)C2)CC1(O)CN2CCC13c1c(ccc(O)c1OC53)CC2C1CC1` (stereo not given) [CAS_105618-26-6], for which the Ki in experiment [4] is 770 nM; in experiment [3] it was 172 nM. Regarding `N[C@@H](Cc1ccc(O)cc1)C(=O)N1Cc2ccccc2C[C@H]1C(=O)N[C@@H](Cc1ccccc1)C(=O)N[C@@H](Cc1ccccc1)C(=O)O` [TIPP] (H-Y[Tic]FF-OH), the inhibitory constant (Ki) in experiment [5] was determined as 2830 nM; in experiment [6] it was 7060 nM.

As to `CC(C)[C@H](NC(=O)[C@H](CCC(=O)O)NC(=O)[C@H](Cc1ccccc1)NC(=O)[C@@H](C)NC(=O)[C@@H](N)Cc1ccc(O)cc1)C(=O)N[C@H](C(=O)NCC(N)=O)C(C)C` [Tyr-D-Ala-Phe-Glu-Val-Val-GlyNH2], the values for the Ki in experiment [5] and in experiment [6] were 1190 nM and 2880 nM, respectively. Consider `C[C@@H](NC(=O)[C@@H](N)Cc1ccc(O)cc1)C(=O)NCC(=O)N(C)[C@@H](Cc1ccccc1)C(=O)NCCO` [[tyrosyl-3,5-3H(N)]-D-Ala2-Mephe4-glyol5-enkephalin], for which, in experiment [1], affinity was put at a Ki of 2.6 nM. On to `CC(C)C[C@H](NC(=O)[C@H](Cc1ccccc1)NC(=O)CNC(=O)[C@@H](CO)NC(=O)[C@@H](N)Cc1ccc(O)cc1)C(=O)N[C@H](C(=O)O)[C@@H](C)O` [DSLET-OH], for which the Ki in experiment [5] was found to be 9.8 nM; in experiment [6], 6.3 nM.

Usually Ki stands for the dissociation constant of the complex between target and ligand, obtained from inhibition or displacement.
